SMILES strings stand for the structures.

The subject of series [1] is BxPc-3. As to the kind of experiment: MTT cytotoxicity of Biotin-Gem and Biotin-Gem-RB in BxPC-3 cells. It is filed as cell-based, human. The following applies: 48 h incubation. As for the experimental part:
To ensure the antimetabolite efficacy of Biotin-Gem and Biotin-Gem-RB were unaffected by chemical modification, the cytotoxicity of the conjugates was determined in the human pancreatic adenocarcinoma cell line BxPc-3. […] These cells were seeded into 96 well plates at a density of 5000 cells per well. The plates were then incubated for 24 hours followed by the addition of 100 uL of media spiked with either Gem, Biotin-Gem or Biotin-Gem-RB. The concentrations used for Biotin-Gem were […] while for Biotin-Gem-RB, concentrations of 0.01 μM, 0.05 μM, 0.1 μM, 0.5 μM, 1 μM, 5 μM and 10 μM were investigated. Corresponding concentrations of Gem were used in each case. The cells were then further incubated for 48 hours before cell viability was determined using an MTT assay.

For another series, the system named is Panc-1. The series is described as follows: MTT assay biotin-GEM-RB vs gemcitabine hydrochloride, Panc-1. Format: cell-based, human. As for the experimental part: (§1) Human primary pancreatic adenocarcinoma cell lines BxPc-3, Panc-1 and Mia-PaCa-2 were maintained in RPMI 1640 medium which was supplemented with 100 U/mL penicillin, […] streptomycin, and 10% fetal bovine serum (FBS) and Dulbecco's Modified Eagle's Medium (DMEM) containing 1 g/L glucose and supplemented with 100 U/mL penicillin, […] streptomycin, and 10% fetal bovine serum (FBS) respectively in a humidified 5% CO2 atmosphere at 37° C. These cells were seeded into 96 well plates at a density of 5000 cells per well. The plates were then incubated for 24 hours followed by the addition of 100 μL of media spiked with Gem or Biotin-Gem-RB at concentrations ranging from 0.001-1000 μM. The cells were then further incubated for 48 hours before cell viability was determined by an MTT assay.
In general terms: Tetrazolium assays rely on reduction of a dye to a coloured formazan, in cell work by metabolically active cells.

The subject of series [2] is BxPc-3. As to the kind of experiment: MTT assay biotin-GEM-RB vs gemcitabine hydrochloride, BxPc-3. It is filed as cell-based, human. The conditions noted are these: BxPc-3, 0-1000 μM, 48 h. As for the experimental part: as §1
In another series the test system is Mia-PaCa-2. As to the kind of experiment: MTT assay biotin-GEM-RB vs gemcitabine hydrochloride, Mia-PaCa-2. Format: cell-based, human. The following applies: Mia-PaCa-2, 0-1000 μM, 48 h. As for the experimental part: as §1
Another series has as its system MCF-7 cells. As to the kind of experiment: Colony forming assay in MCF-7 cells. It is filed as cell-based, human. The conditions noted are these: +US (1 MHz, 30 s, 3 Wcm^−2); PTX 1 nM, Dox 10 nM, RB 10 nM, 3 hours. As for the experimental part: FIG. 16 is a plot showing % survival fraction from a MCF-7 colony forming assay. Cells following treatment with PTX/Dox/RB alone (Drug combo) or following treatment with ultrasound (Drug Combo+US). After treatment cells were incubated for 8 days followed by fixation and staining. Crystal violet staining was quantified via Image J.
In this study, the concentration of each individual drug used was intentionally sub-lethal, so that any benefit obtained by the combination treatment could easily be identified. In addition, as the action of ultrasound can influence the cellular uptake of drugs as a result of sonoporation, cells treated with Dox or PTX were also exposed to ultrasound, to control for any potential ultrasound mediated effects on cell viability as a result of sonoporation. Following treatment, cell viability was determined using a colony forming assay.
MCF-7 cells were seeded (5×10^3) in a 96 well plate, 24 hours later cells were treated with free drug as a single treatment of PTX (1 nM), Dox (10 nM), RB (10 nM) or combination treatment for 3 hours followed by media replacement. Selected wells were treated with ultrasound delivered using a Sonidel SP100 sonoporator (1 MHz, 30 seconds, 3 Wcm^−2, duty cycle=50%, and PRF=100 Hz). The following day cells were pooled from 2 wells and seeded in a 6 well plate. Plates were placed in an incubator for 7 days. Media was removed from wells, fixation/staining solution was added at room temperature for 20 minutes. Fixative/staining solution contained: 0.5 g crystal violet (0.05%), 27 ml 37% formaldehyde, 100 ml 10×PBS (X1), 10 mL methanol (1%) and 863 mL of distilled water. Solution was removed and washed under running water. Pictures were taking using a high-resolution camera and colony formation was analysed via Image J.

Series [3] in a line: Body weight of Mia-PaCa-2 tumour bearing mice (FIG. 11b). It is filed as in vivo, SCID mice. The conditions noted are these: clinical dose 120 mg/Kg I.P., day 6. As for the experimental part: The microbubble suspension (6.86×10^7±1.99×10^6 MB) was delivered as a 100 uL I.V injection (PTX—2.44±0.37 mg/Kg, GEM—0.5±0.04 mg/Kg, RB—1.85±0.14 mg/Kg). Gemcitabine hydrochloride was dissolved in sterile PBS and administered as a 100 uL I.P injection (120 mg/Kg). Ultrasound treatment was delivered for 3.5 minutes at frequency of 1 MHz, an ultrasound power density of 3.5 W/cm^2 and a duty cycle of 30% immediately after injection and 30 minutes following. Error bars represent±the standard error.
Mia-Paca-2 cells were maintained in DMEM medium and BxPc-3 cells were maintained in RPMI 1640 both supplemented with 100 U/mL penicillin, […] streptomycin, and 10% fetal bovine serum (FBS) in a humidified 5% CO2 atmosphere at 37° C. Cells (5×10^6) were re-suspended in Matrigel® and implanted subcutaneously into the rear dorsum of SCID (C.B-17/IcrHan®Hsd-Prkdcscid) mice. Tumours reached treatable size within 3 weeks. Tumour measurements were taken daily using callipers. Once the tumours had reached an average volume of 150 mm^3 animals were randomly assigned into treatment groups. Animals were anaesthetised by intraperitoneal injection of hypnorm:hypnovel:ice cold sterile water for injection (1:2:1). […] Tumour growth was monitored daily throughout the course of the treatment.

Turning to `Nc1ccn([C@@H]2O[C@H](COC(=O)OCCNC(=O)CCCCC3SCC4NC(=O)NC43)[C@@H](O)C2(F)F)c(=O)n1` (stereo partly drawn) [Biotin-Gem, (2R,3R,5R)-5-(4-amino-2-oxopyrimidin-1(2H)-yl)-4,4-difluoro-3 hydroxytetrahydrofuran-2-yl)methyl (2-(5-(2-oxohexahydro-1H-thieno[3,4-d]imidazol-4-yl)pentanamido)ethyl) carbonate], in the series with BxPc-3 [1] (0-100 μM), the “efficacy (cell viability, MTT) compared to Gemcitabine” value was “no statistically significant difference in efficacy”.

As to `Nc1ccn([C@@H]2O[C@H](COC(=O)CCCCCCC(=O)NCCN(CCNC(=O)CCCCCCC(=O)NCCOC(=O)c3c(Cl)c(Cl)c(Cl)c(Cl)c3-c3c4cc(I)c(=O)c(I)c-4oc4c(I)c(O)c(I)cc34)CCNC(=O)CCCCC3SCC4NC(=O)NC43)[C@@H](O)C2(F)F)c(=O)n1` (stereo partly drawn) [Biotin-Gem-RB, ((2R,3R, 5R)-5-(4-amino-2-oxopyrimidin-1 (2H)-yl)-4,4-difluoro-3-hydroxytetrahydrofuran-2-yl)methyl 4,11,19-trioxo-15-(2-(5-(2-oxohexahydro-1H-thieno[3,4-d]imidazol-4-yl)pentanamido)ethyl)-1-((2,3,4,5-tetrachloro-6-(6-hydroxy-2,4,5,7-tetraiodo-3-oxo-3H-xanthen-9-yl)benzoyl)oxy)-3,12,15,18-tetraazahexacosan-26-oate], in the series on BxPc-3 [1] (0.01-10 μM), the “efficacy (cell viability, MTT) compared to Gemcitabine” value is “no statistically significant difference in efficacy”. Moreover, the “efficacy vs gemcitabine HCl (MTT)” value in the series with Panc-1 (Panc-1, 0-1000 μM, 48 h) is given as “no decrease in efficacy”; in the series with Panc-1 (Panc-1, above 10 μM), “significant increase in efficacy”; with BxPc-3 [2], “no decrease in efficacy”; in the series on Mia-PaCa-2 it was “no decrease in efficacy”.

As to `COc1cccc2c1C(=O)c1c(O)c3c(c(O)c1C2=O)C[C@@](O)(C(=O)CO)C[C@@H]3O[C@H]1C[C@H](N)[C@H](O)[C@H](C)O1` [Dox, doxorubicin], the “reduction of colony number compared to untreated cells” value (“reduction of colony number” below) in the series with MCF-7 cells is listed as 29.3%.

In the case of `CC(=O)O[C@H]1C(=O)[C@@]2(C)[C@H]([C@H](OC(=O)c3ccccc3)[C@]3(O)C[C@H](OC(=O)[C@H](O)[C@@H](NC(=O)c4ccccc4)c4ccccc4)C(C)=C1C3(C)C)[C@]1(OC(C)=O)CO[C@@H]1C[C@@H]2O` [PTX, paclitaxel], in the series on MCF-7 cells, the “reduction of colony number” value amounted to 7.3%.

`O=C1OC2(c3cc(I)c(O)c(I)c3Oc3c2cc(I)c(O)c3I)c2c(Cl)c(Cl)c(Cl)c(Cl)c21` [RB, Rose Bengal]: the “reduction of colony number” value in the series on MCF-7 cells was 18.8%.

As to `Nc1ccn([C@@H]2O[C@H](CO)[C@@H](O)C2(F)F)c(=O)n1` [gemcitabine], in series [3], the “decrease in body weight” value was 12%.

Values taken from patent US11878059B2, “Sonodynamic therapy” (UNIVERSITY OF ULSTER, priority 2017, dated 2024).
